Laboratory results reported in patent publication US9650417B2, “Treatments for gastrointestinal disorders” (Ironwood Pharmaceuticals, Inc., priority 2011, dated 2017).
Bridge positions count the residues as written; N and C are the ends. Square brackets hold non-standard residues; d marks the D form. Peptide text beside a SMILES is read from it. pS = N[C@@H](COP(=O)(O)O)C(=O)O

Tests used:
[1] = target: T1, Calf intestinal alkaline phosphatase (CIP) (Bos taurus, UniProt P19111); assay: Alkaline phosphatase reaction (dephosphorylation of peptide substrates); type: in vitro ADME; conditions: with and without calf intestinal alkaline phosphatase; data not shown
T1 construct: purchased New England BioLabs, Ipswich, Mass; MO290S
T1 sequence (P19111 20-506): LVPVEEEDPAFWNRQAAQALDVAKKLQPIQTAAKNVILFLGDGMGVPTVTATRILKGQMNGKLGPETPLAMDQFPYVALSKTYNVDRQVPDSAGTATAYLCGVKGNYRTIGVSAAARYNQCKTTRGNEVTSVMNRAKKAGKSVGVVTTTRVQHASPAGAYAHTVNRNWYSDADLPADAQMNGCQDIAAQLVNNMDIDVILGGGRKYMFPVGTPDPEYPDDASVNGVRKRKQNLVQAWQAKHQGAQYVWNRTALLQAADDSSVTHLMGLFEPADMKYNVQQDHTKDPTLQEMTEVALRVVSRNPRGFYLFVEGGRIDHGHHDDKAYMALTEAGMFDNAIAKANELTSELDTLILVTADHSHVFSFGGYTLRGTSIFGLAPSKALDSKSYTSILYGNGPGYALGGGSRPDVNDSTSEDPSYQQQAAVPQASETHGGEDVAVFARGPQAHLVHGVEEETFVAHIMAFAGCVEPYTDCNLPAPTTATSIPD
Experimental: For the alkaline phosphatase reactions, peptide stocks were prepared at 1 mg/mL in 0.1 M Tris-HCl pH 8, which were stored at −20° C. until assays were conducted. For the acid phosphatase reactions, peptide stocks were prepared at 1 mg/mL in 50 mM sodium phosphate pH 6, which was stored at −20° C. until assays were conducted.
Calf intestinal alkaline phosphatase (CIP) was obtained from New England BioLabs, Ipswich, Mass. Cat # MO290S. The CIP reaction solution was prepared by dilution with buffer (50 mM KCl, 10 mM Tris-HCl pH 8, 1 mM MgCl2, 50% glycerol) to 0.5 units/μL. The alkaline phosphatase reaction solutions were assembled in 20 μL quantities containing:
2 μL 10×CIP buffer (1M NaCl, 500 mM Tris-HCl pH 8, 100 mM MgCl2)
2 μL peptide stock (1 mg/mL)
4 μL alkaline phosphatase (0, 0.5 or 2 units)
The reaction solutions were mixed gently and incubated for 90 minutes at 37° C. These reaction solutions were stored at −20° C. until analysis. For analysis, the reaction solutions were diluted from 7.5 μL of CIP treated peptide to 50 μL with 0.1% formic acid in water to a final concentration of 10 μM.
Control reactions were assembled for enzyme activity containing 10 mM p-nitrophenylphosphate in place of peptide. After incubation, the reactions were diluted with 0.1 mL of 100 mM borate buffer pH 9 and read at the absorbance of 405 nm to monitor p-nitrophenol appearance.

[2] = In vitro metabolism in mouse jejunum loop fluid; type: in vitro ADME; conditions: for metabolism in control reaction: 120 minute incubation; for degradation rate compared with peptide 2: mouse intestinal fluid
Experimental: The purpose of this study was to determine the stability of phosphorylated peptides in mouse jejunal loop fluid. […] The isotopically labeled peptide 2 was synthesized with ^13C, ^15N-labeled alanine and leucine (i.e., with a sequence CCpS[^13C6, ^15N]LCCNP[^13C6, ^15N]ACTGC).
Each peptide was synthesized by American Peptide Company, Inc., and was stored desiccated at −20° C. A 1 mg/mL solution for each of the non-labeled peptides was prepared in 1 M tris(hydroxymethyl)aminomethane hydrochloride (Tris-HCl), pH 8 just prior to conducting the mouse intestinal loop fluid assay. A 500 ng/mL solution of ^13C, ^15N-labeled peptide 2 was prepared in 0.1% formic acid in water and was utilized to dilute the jejunum samples for post-assay LC-MS/MS analysis.
To collect the fluid, mice were fasted overnight with full access to water. They were then anesthetized with isofluorane for surgery and subjected to laparotomy in which the small intestine was exteriorized. Jejunum loops of 3 to 4 cm in length were made with sutures starting at 7 cm from the pyloric sphincter of the stomach. Once the loops were formed, they were injected with 200 μL of phosphate buffered saline (PBS) buffer (10 mM, pH 7.4). The abdominal wall and skin of the animals were then sutured, and the animals were allowed to recover for 30 minutes. Following recovery, the animals were sacrificed, the loops were then excised and the fluid inside was recovered and stored at −80° C. until use.
For each peptide, 25 μL of the 1 mg/mL peptide stock solution was added to 25 μL of 1 M Tris-HCl and 25 μL of 10× calf intestinal phosphatase (CIP) buffer containing 500 mM Tris-HCl, 1 M sodium chloride (NaCl), 0.1 mM magnesium chloride (MgCl2), pH 8. The reactions were initiated by adding 175 μL of the mouse jejunum loop fluid or 175 μL of the 1 M Tris-HCl pH8 buffer for the control reactions. The final concentration of each peptide was 100 μg/mL. The reactions were continuously mixed and maintained at 37° C. on a plate shaker. At 0, 2, 5, 10, 20, 30, 60, 90 and 120 minutes after adding the mouse intestinal loop fluid, a 25 μL aliquot was taken and added to 25 μL of 4° C. 12% trichloroacetic acid to stop the reaction. An additional 200 μL of 0.1% formic acid in water was added to these reactions for dilution purposes. These samples were then further diluted by taking 20 μL of each sample and adding it to 480 μL of 0.1% formic acid in water containing 500 ng/mL of the internal standard 13C, 15N-labeled peptide 2.
All samples were analyzed using an Applied Biosystems/MDS SCIEX API 4000 triple quadrupole mass spectrometer equipped with a high-performance liquid chromatography (HPLC) system. The mass spectrometer was operated in multiple reaction monitoring (MRM) mode, with resolution set to 1.2 Da.
The LC-MS/MS data were processed using Analyst version 1.4.2 software (Applied Biosystems/MDS SCIEX). The peak area ratio (ratio of analyte peak area to internal standard peak area) was used to calculate the percent remaining of each peptide.

GC-C = target: T2, GC-C (Homo sapiens, UniProt P25092); assay: cGMP accumulation in T84 cells for analysis of GC-C activity; type: cell-based
T2 construct: endogenous in cells; host or cells: T84 cells
T2 sequence (P25092 24-1073): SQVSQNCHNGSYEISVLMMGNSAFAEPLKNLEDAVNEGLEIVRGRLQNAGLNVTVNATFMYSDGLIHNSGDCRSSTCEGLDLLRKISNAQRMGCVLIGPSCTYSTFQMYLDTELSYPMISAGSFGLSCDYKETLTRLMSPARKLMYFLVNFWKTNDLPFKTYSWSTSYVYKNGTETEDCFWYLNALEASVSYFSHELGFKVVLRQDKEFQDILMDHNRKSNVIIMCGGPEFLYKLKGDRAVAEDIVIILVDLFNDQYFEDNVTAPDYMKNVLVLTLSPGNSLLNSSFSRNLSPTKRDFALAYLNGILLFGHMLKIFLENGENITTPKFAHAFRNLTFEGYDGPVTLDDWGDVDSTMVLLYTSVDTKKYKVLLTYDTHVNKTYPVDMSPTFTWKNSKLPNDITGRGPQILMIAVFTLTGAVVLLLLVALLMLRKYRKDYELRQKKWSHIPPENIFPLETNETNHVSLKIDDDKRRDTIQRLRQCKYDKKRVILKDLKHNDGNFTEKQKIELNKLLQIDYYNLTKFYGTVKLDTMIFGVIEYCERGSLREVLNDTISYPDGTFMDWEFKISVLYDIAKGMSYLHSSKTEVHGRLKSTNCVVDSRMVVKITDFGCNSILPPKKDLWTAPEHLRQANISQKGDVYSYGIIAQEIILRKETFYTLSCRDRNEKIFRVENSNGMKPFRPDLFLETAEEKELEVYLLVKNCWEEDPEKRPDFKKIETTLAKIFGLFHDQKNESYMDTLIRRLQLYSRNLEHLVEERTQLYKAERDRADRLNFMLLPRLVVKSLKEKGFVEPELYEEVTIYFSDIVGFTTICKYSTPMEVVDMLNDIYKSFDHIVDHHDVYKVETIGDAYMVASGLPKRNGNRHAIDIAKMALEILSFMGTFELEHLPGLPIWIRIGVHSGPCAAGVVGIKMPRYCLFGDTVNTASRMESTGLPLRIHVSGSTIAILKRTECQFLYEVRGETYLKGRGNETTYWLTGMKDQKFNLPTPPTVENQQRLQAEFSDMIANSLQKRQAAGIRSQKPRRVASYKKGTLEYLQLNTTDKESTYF
Experimental: For the cGMP assay, 4.5×10^5 cells/mL of T84 cells were grown overnight in 24 well tissue culture plates. […] After the second wash, the cells were incubated with 450 μL of 1 mM isobutylmethylxanthine (IBMX) in either the pH 5 or pH 8 buffers for 10 minutes at 37° C. to inhibit any phosphodiesterase activity. The peptides were then diluted in either pH 5 or pH 8 buffer to a 10× concentration. The peptide solution of 50 μL was diluted to a final volume of 500 μL with the T84 cells, bringing each peptide concentration to 1×. An eleven point curve analysis was conducted for each peptide, with final peptide concentrations tested in each assay, in nM: 10000, 3000, 1000, 300, 100, 30, 10, 3, 1, 0.3, 0.1.
There was no peptide control used to determine endogenous levels of cGMP. Peptides were incubated for 30 minutes at 37° C. After 30 minutes, the supernatants were removed and the cells were lysed with 0.1 M HCl. The cells were lysed for 30 minutes on ice. After 30 minutes, lysates were pipetted off and placed into a 96 well HPLC plate and spun at 10,000×g for 10 minutes to remove any cell debris. […]
cGMP concentrations were determined from each sample using the LC/MS conditions in Table 4 and a calculated standard curve. EC50 values were calculated from concentration-response curves generated with GraphPad Prism Software. […]

[3] = oral administration at therapeutic dose levels; cited from earlier work
[4] = control reaction (1 M Tris-HCl) at 37° C.

SMILES | metabolism in control reaction [2, 4] | degradation rate compared with peptide 2 [2] | other results
CC(C)C[C@@H]1NC(=O)[C@H](CCC(=O)O)NC(=O)[C@@H]2CSSC[C@@H]3NC(=O)[C@H](C)NC(=O)[C@@H]4CCCN4C(=O)[C@H](CC(N)=O)NC(=O)[C@H](CSSC[C@H](N)C(=O)N2)NC(=O)[C@H](CSSC[C@@H](C(=O)N[C@@H](Cc2ccc(O)cc2)C(=O)O)NC(=O)CNC(=O)[C@H]([C@@H](C)O)NC3=O)NC1=O [Peptide 3, CCELCCNPACTGCY] (H-CCELCCNPACTGCY-OH; disulfide 1-6, 2-10, 5-13 (inferred); N-terminus and C-terminus assumed) | not metabolized | degraded faster | effect of CIP treatment (LC-MS) [1]: not affected; detection of peptide in mouse jejunum fluid ([2]; after 90 minutes, 37° C., 100 μg/mL): not detected
CC(C)C[C@@H]1NC(=O)[C@H](COP(=O)(O)O)NC(=O)[C@@H]2CSSC[C@@H]3NC(=O)[C@H](C)NC(=O)[C@@H]4CCCN4C(=O)[C@H](CC(N)=O)NC(=O)[C@H](CSSC[C@H](N)C(=O)N2)NC(=O)[C@H](CSSC[C@@H](C(=O)O)NC(=O)CNC(=O)[C@H]([C@@H](C)O)NC3=O)NC1=O [Peptide 2, CCpSLCCNPACTGC] (H-CC[pS]LCCNPACTGC-OH; disulfide 1-6, 2-10, 5-13 (inferred); N-terminus and C-terminus assumed) | not metabolized |  | formation of metabolite dephospho-peptide 2 in control reaction [2, 4]: no dephospho-peptide 2 was formed
CC(C)C[C@@H]1NC(=O)[C@H](COP(=O)(O)O)NC(=O)[C@@H]2CSSC[C@@H]3NC(=O)[C@H](C)NC(=O)[C@@H]4CCCN4C(=O)[C@H](CC(N)=O)NC(=O)[C@H](CSSC[C@H](NC(=O)[C@H](CC(=O)O)NC(=O)[C@@H](N)CC(=O)O)C(=O)N2)NC(=O)[C@H](CSSC[C@@H](C(=O)N[C@@H](Cc2ccc(O)cc2)C(=O)O)NC(=O)CNC(=O)[C@H]([C@@H](C)O)NC3=O)NC1=O [Peptide 5, DDCCpSLCCNPACTGCY] (H-DDCC[pS]LCCNPACTGCY-OH; disulfide 3-8, 4-12, 7-15 (inferred); N-terminus and C-terminus assumed) |  |  | EC50 (GC-C): 14.7 nM
CC(C)C[C@@H]1NC(=O)[C@H](CO)NC(=O)[C@@H]2CSSC[C@@H]3NC(=O)[C@H](C)NC(=O)[C@@H]4CCCN4C(=O)[C@H](CC(N)=O)NC(=O)[C@H](CSSC[C@H](N)C(=O)N2)NC(=O)[C@H](CSSC[C@@H](C(=O)O)NC(=O)CNC(=O)[C@H]([C@@H](C)O)NC3=O)NC1=O [Dephospho-Peptide 2, CCSLCCNPACTGC] (H-CCSLCCNPACTGC-OH; disulfide 1-6, 2-10, 5-13 (inferred); N-terminus and C-terminus assumed) | not metabolized | degraded faster | 
C[C@@H]1NC(=O)[C@@H]2CCCN2C(=O)[C@H](CC(N)=O)NC(=O)[C@@H]2CSSC[C@H](N)C(=O)N[C@H]3CSSC[C@H](NC1=O)C(=O)N[C@@H]([C@@H](C)O)C(=O)NCC(=O)N[C@H](C(=O)N[C@@H](Cc1ccc(O)cc1)C(=O)O)CSSC[C@H](NC(=O)[C@H](Cc1ccc(O)cc1)NC(=O)[C@H](CCC(=O)O)NC3=O)C(=O)N2 [linaclotide, Linaclotide] (H-CCEYCCNPACTGCY-OH; disulfide 1-6, 2-10, 5-13) |  |  | systemic levels after oral administration [3]: no detectable levels
